Assays:
[1] = tested on: colorectal (HCT116 and SW620) cell line models; experiment: MTS growth inhibition assay; type: cell-based; settings: increasing concentrations between 0 and 100 μmol/L; both colorectal cancer cell lines evaluated
Procedure: The Cell Titer AQueous MTS assay (Promega) is carried out according to the manufacturers guidelines. […] The combination effect is determined by the combination index (CI) method utilizing Calcusyn software (Biosoft, Ferguson, Mo.). Fraction affected (FA) is calculated from the percent growth inhibition: FA=[…]. CI values <1, synergism; 1-1.2, additive and >1.2, antagonism.
Test compounds are evaluated for their antitumor activity in colorectal cancer cells using the MTS growth inhibition assay. HCT116 and SW620 cells are exposed to increasing concentrations of each agent for 72 hours and growth inhibition is directly compared to vehicle-treated controls. The NSCLC cell lines A549 and H1299 are exposed to increasing concentrations of each agent for 72 hours and growth inhibition is directly compared to vehicle-treated controls.
MTS growth inhibition assays are performed to evaluate the effectiveness of the test compounds alone and in combination with the fluoropyrimidine thymidylate synthase (TS) inhibitor 5-fluorouracil (5-FU) at inhibiting the growth of colorectal (HCT116 and SW620) cell line models. […] Simultaneous treatment with increasing concentrations of 5-FU and a test compound at fixed concentrations of 25 μmol/L is determined.

[2] = tested on: colorectal (HCT116), breast (MCF-7) and non-small cell lung (H1299, A549, H358 and H460) cell line models; experiment: Colony forming assay; type: cell-based; settings: increasing concentrations between 0.5 and 2.5 μmol/L; all cell lines evaluated
Procedure: Colony forming assay showing the ability of colon (SW620, HCT116), non-small cell lung (A549, H460, H1299 and H358) and breast (MCF7) cancer cells to survive and proliferate following transient 24 hour exposure to test compounds, FUdR and combinations are determined. Specifically, cells are seeded at densities between 50 and 100 cells/well in 24-well plates. Twenty-four hours later, cells are treated with increasing concentrations of a test compound, a fixed dose of FUdR and combinations of these. After 24 hours, drug is removed, cells are rinsed and allowed to outgrow for 10-14 days. At the conclusion of the outgrowth, cells are fixed in 60% ice cold methanol and stained with 0.1% crystal violet, scanned and counted. Data is presented as percentage of untreated controls (mean±SD). Fraction affected and combination indexes are calculated according to the method of Chou and Talalay where <1 is indicative of a synergistic drug interaction.
Colony forming assays are performed to evaluate the effectiveness of test compounds alone and in combination with the fluoropyrimidine thymidylate synthase (TS) inhibitor fluorodeoxyuridine (FUdR) at reducing cancer cell viability in colorectal (HCT116), breast (MCF-7) and non-small cell lung (H1299, A549, H358 and H460) cell line models. […]

Row | Compound | growth inhibition [1] | colonies formed [2]
1 | O=c1[nH]cc(F)c(=O)[nH]1 [Compound 5-FU, 5-fluorouracil] | dose-dependent increases in growth inhibition | 
2 | O=c1[nH]c(=O)n([C@H]2C[C@H](O)[C@@H](CO)O2)cc1F [FUdR, fluorodeoxyuridine] |  | dose-dependent decreases in colonies formed
